{"source": "patent US20250346581A1", "about": "“PROCESS FOR SYNTHESIS OF GALBULIMIMA ALKALOID 18 AND COMPOUNDS USEFUL AS OPIOID RECEPTOR ANTAGONISTS AND AGONISTS” (The Scripps Research Institute, priority 2022, published 2025)", "key": {"[1]": {"target": "T1, KOR (Homo sapiens, UniProt P41145)", "T1 sequence (P41145 whole entry)": "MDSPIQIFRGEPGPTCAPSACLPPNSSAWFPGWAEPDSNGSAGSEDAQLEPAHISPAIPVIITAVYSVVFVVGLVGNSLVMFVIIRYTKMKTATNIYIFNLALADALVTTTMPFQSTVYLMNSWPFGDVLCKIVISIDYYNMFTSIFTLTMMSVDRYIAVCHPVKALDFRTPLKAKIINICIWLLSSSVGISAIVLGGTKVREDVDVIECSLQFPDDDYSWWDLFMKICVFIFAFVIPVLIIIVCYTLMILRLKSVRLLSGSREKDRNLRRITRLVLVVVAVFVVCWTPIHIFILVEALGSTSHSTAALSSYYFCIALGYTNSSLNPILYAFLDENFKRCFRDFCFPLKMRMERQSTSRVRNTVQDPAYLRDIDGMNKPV", "test": "KOR cAMP inhibition screening, antagonist mode vs. 100 nM U69,593", "details": "Antagonist vs. 100 nM U69,593 IC50 (nM)"}, "[2]": {"target": "T1, KOR", "test": "KOR cAMP inhibition screening, agonist mode"}, "[3]": {"target": "T2, kappa-opioid receptors (KOR) (Homo sapiens, UniProt P41145)", "T2 construct": "NIMH Psychoactive Drug Screening Program (screening service)", "T2 sequence (P41145 whole entry)": "as above", "test": "NIMH PDSP radioligand displacement, [3H]U-69593", "assay_type": "binding", "details": "for displacement of [3H]U-69593 from KOR: 10 μM"}, "[4]": {"target": "T3, mu-opioid receptors (MOR) (Homo sapiens, UniProt P35372)", "T3 construct": "NIMH Psychoactive Drug Screening Program (screening service)", "T3 sequence (P35372 whole entry)": "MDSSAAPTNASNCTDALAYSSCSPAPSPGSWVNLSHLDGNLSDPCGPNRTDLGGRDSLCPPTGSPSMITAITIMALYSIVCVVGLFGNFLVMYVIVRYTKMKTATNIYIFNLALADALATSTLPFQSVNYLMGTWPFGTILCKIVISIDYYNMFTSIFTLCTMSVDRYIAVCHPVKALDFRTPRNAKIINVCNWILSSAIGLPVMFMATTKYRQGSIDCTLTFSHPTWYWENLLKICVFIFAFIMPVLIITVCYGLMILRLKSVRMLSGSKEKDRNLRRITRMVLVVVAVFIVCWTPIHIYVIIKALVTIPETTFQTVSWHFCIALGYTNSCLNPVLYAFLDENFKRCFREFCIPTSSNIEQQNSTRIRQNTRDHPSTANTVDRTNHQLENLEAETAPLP", "test": "NIMH PDSP radioligand displacement, [3H]DAMGO", "assay_type": "binding", "details": "10 μM"}, "[5]": {"target": "delta-opioid receptors (Homo sapiens, UniProt P41143)", "sequence (P41143 whole entry)": "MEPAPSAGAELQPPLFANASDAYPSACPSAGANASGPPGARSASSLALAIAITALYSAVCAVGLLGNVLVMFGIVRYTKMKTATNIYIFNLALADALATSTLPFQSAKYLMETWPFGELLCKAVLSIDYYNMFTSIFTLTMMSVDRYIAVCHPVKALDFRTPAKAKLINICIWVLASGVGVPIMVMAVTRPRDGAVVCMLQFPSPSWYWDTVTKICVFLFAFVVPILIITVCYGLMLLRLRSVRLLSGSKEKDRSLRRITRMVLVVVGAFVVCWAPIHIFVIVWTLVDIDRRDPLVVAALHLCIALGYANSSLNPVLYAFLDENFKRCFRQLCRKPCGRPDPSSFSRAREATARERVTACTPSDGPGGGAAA", "test": "Follow-up assay delta-opioid receptor", "assay_type": "cell-based"}, "[6]": {"tested_on": ">40 common drug targets", "test": "NIMH PDSP binding screen of common drug targets", "details": "10 μM"}, "[7]": {"target": "T1, KOR", "test": "TANGO assay KOR", "assay_type": "cell-based"}, "[8]": {"target": "nociceptin opioid receptors (Homo sapiens, UniProt P41146)", "sequence (P41146 whole entry)": "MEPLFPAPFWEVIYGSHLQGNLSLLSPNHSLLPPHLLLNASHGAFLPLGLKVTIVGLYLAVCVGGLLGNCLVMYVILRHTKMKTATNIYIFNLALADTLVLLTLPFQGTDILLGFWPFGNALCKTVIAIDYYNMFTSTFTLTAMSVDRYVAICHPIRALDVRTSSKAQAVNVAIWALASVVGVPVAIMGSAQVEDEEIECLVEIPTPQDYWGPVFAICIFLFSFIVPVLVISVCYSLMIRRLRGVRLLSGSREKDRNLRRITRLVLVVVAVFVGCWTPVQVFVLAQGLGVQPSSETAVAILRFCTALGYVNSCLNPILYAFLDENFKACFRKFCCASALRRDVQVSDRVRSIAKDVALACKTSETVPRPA", "test": "Follow-up assay nociceptin opioid receptor", "assay_type": "cell-based"}, "[9]": {"tested_on": "Mas-related GPCRs", "test": "Follow-up assay Mas-related GPCRs", "assay_type": "cell-based"}, "[10]": {"target": "MOR (Homo sapiens, UniProt P35372)", "sequence (P35372 whole entry)": "as the sequence (P35372 whole entry) above", "test": "TANGO assay MOR", "assay_type": "cell-based"}, "[11]": {"tested_on": "mouse", "details": "5 mg/kg; cited from earlier work"}, "[12]": {"tested_on": "mouse", "details": "5 mg/kg; cited from earlier work", "remark": "listed apart in the source"}, "[13]": {"tested_on": "M1-5", "test": "Muscarinic receptor binding (FIG. 3)", "excerpt": "Thus, the topology changes that differentiate the two subclasses also differentiate target selectivity."}, "[14]": {"tested_on": "cats", "details": "2.5 mg/kg, i.v. administration; cited from earlier work"}, "[15]": {"tested_on": "rabbit intestine", "details": "0.1 mg/L, furmethide-induced spasm; cited from earlier work"}, "[16]": {"target": "T1, KOR"}, "[17]": {"tested_on": "mammals", "details": "cited from earlier work"}, "[18]": {"tested_on": "mammals", "details": "in vivo; cited from earlier work"}, "[19]": {"details": "read-out: Agonist Emax (% U69,593)"}, "[20]": {"details": "read-out: Agonist Emax (% U69,593), KOR cAMP, agonist mode"}}, "note": "“Also recorded” adds a separate entry of the source. Read-outs that look alike come from different tables or passages of the source. Marks after values point to notes of the source that are not given here.", "data": [{"compound": "CC1CCCC(C2CC3C4CCCCC45C=C(I)C4C2(C)OC345)N1C", "note": "(stereo not drawn)", "values": [{"measurement": "IC50", "setting": "[1]", "value": 830, "unit": "nM"}]}, {"compound": "C#CCOC(=O)C1=CC23CCCCC2C2CC(C4CCCC(C)N4)C4(C)OC23C14", "note": "(stereo not drawn)", "values": [{"measurement": "Emax", "setting": "[2]; [19]", "value": 5, "unit": "%"}, {"measurement": "IC50", "setting": "[1]", "value": 556, "unit": "nM"}]}, {"compound": "CCOC(=O)C1=CC23CCCCC2C2CC(C4CCCC(C)N4C)C4(C)OC23C14", "note": "(stereo not drawn)", "values": [{"measurement": "Emax", "setting": "[2]; [19]", "value": 15, "unit": "%"}, {"measurement": "IC50", "setting": "[1]", "value": 3390, "unit": "nM"}]}, {"compound": "CC1CCCC(C2CC3C4CCCCC45C=C(C#N)C4C2(C)OC345)N1C", "note": "(stereo not drawn)", "values": [{"measurement": "Emax", "setting": "[2]; [20]", "value": 8, "unit": "%"}]}, {"compound": "CC1CCCC([C@H]2C[C@H]3C4CCCCC45C=C(I)[C@H]4C2(C)OC345)N1C", "note": "(stereo partly drawn)", "values": [{"measurement": "IC50", "setting": "[1]", "value": 1400, "unit": "nM"}]}, {"compound": "C=CCN1C(C)CCCC1C1CC2C3CCCCC34C=C(C(=O)OC)C3C1(C)OC234", "note": "(stereo not drawn)", "values": [{"measurement": "Emax", "setting": "[2]; [20]", "value": 2, "unit": "%"}]}, {"compound": "COC(=O)C1=CC23CCCCC2C2CC(C4CCCC(C)N4C(C)=O)C4(C)OC23C14", "note": "(stereo not drawn)", "values": [{"measurement": "Emax", "setting": "[2]; [19]", "value": 10, "unit": "%"}, {"measurement": "IC50", "setting": "[1]", "value": "> 10000", "unit": "nM"}]}, {"compound": "CC1CCCC(C2CC3C4CCCCC45C=C(CO)C4C2(C)OC345)N1C", "note": "(stereo not drawn)", "values": [{"measurement": "Emax", "setting": "[2]; [19]", "value": 12, "unit": "%"}, {"measurement": "IC50", "setting": "[1]", "value": 116, "unit": "nM"}]}, {"compound": "COCC1=CC23CCCCC2C2CC(C4CCCC(C)N4C)C4(C)OC23C14", "note": "(stereo not drawn)", "values": [{"measurement": "Emax", "setting": "[2]; [19]", "value": 14, "unit": "%"}, {"measurement": "IC50", "setting": "[1]", "value": 3220, "unit": "nM"}]}, {"compound": "CC(=O)C1=CC23CCCCC2C2CC(C4CCCC(C)N4C)C4(C)OC23C14", "note": "(stereo not drawn)", "values": [{"measurement": "Emax", "setting": "[2]; [20]", "value": 12, "unit": "%"}]}, {"compound": "COCC(=O)C1=CC23CCCCC2C2CC(C4CCCC(C)N4C)C4(C)OC23C14", "note": "(stereo not drawn)", "values": [{"measurement": "Emax", "setting": "[2]; [20]", "value": 10, "unit": "%"}]}, {"compound": "CC1CCCC(C2CC3C4CCCCC45C=C(C4=NCCO4)C4C2(C)OC345)N1C", "note": "(stereo not drawn)", "values": [{"measurement": "Emax", "setting": "[2]; [20]", "value": 4, "unit": "%"}]}, {"compound": "COC1CC23CCCCC2C2CC(c4cccc(C)n4)C4(C)OC23C14", "note": "(stereo not drawn)", "values": [{"measurement": "Emax", "setting": "[2]; [20]", "value": 5, "unit": "%"}]}, {"compound": "COC(=O)C1=CC23CCCCC2[C@@H]2C[C@H](c4cccc(C)c4)C4(C)OC23[C@@H]14", "note": "(stereo partly drawn)", "values": [{"measurement": "Agonist Emax (% U69,593)", "setting": "[2]", "value": "60* % U69,593"}, {"measurement": "EC50", "setting": "[2]", "value": 1050, "unit": "nM"}]}, {"compound": "COC(=O)C1=CC23CCCCC2[C@@H]2C[C@H](c4cccnc4)C4(C)OC23[C@@H]14", "note": "(stereo partly drawn)", "values": [{"measurement": "Emax", "setting": "[2]; [19]", "value": 19, "unit": "%"}, {"measurement": "IC50", "setting": "[1]", "value": "> 10000", "unit": "nM"}]}, {"compound": "COC(=O)C1=CC23CCCCC2[C@H]2C[C@@H](C4CCCC(C)N4)C(C)(O3)[C@@H]12", "note": "(single isomer, unassigned) [ent-GB18]", "values": [{"measurement": "displacement of [3H]U-69593 from KOR", "setting": "[3]", "value": 56, "unit": "%"}, {"measurement": "Ki", "setting": "[3]; [3H]U-69593 displacement", "value": 1100, "unit": "nM"}]}, {"compound": "COC(=O)C1=CC23CCCCC2[C@@H]2C[C@H](C4CCCC(C)N4)C(C)(O3)[C@H]12", "note": "(single isomer, unassigned) [nat-GB18]", "values": [{"measurement": "displacement of [3H]U-69593 from KOR", "setting": "[3]", "value": 87, "unit": "%"}, {"measurement": "displacement of [3H]DAMGO from MOR", "setting": "[4]", "value": 85, "unit": "%"}, {"measurement": "ligation of delta-opioid receptors", "setting": "[5]", "value": "not strongly ligated"}, {"measurement": "binding to >40 common drug targets", "setting": "[6]", "value": "low or statistically-insignificant"}, {"measurement": "IC50", "setting": "[7]; TANGO, antagonist", "value": 10, "unit": "nM"}, {"measurement": "ligation of nociceptin opioid receptors", "setting": "[8]", "value": "not strongly ligated"}, {"measurement": "ligation of Mas-related GPCRs", "setting": "[9]", "value": "not strongly ligated"}, {"measurement": "IC50", "setting": "[10]; TANGO, antagonist", "value": 12, "unit": "nM"}]}, {"compound": "COC(=O)C1=C[C@@]23CCCC[C@H]2[C@@H]2C[C@H]([C@H]4CCC[C@@H](C)N4)C(C)(O3)[C@H]12", "note": "[GB18, methyl (2R,3aS,5aR,9aS,9bS)-3-methyl-2-((2R,6R)-6-methylpiperidin-2-yl)-1,2,3,3a,6,7,8,9,9a,9b-decahydro-3,5a-epoxycyclopenta[a]naphthalene-4-carboxylate]", "values": [{"measurement": "inhibition of mouse preening", "setting": "[11]", "value": "inhibition of preening; also recorded: inhibited mouse preening"}, {"measurement": "antagonism of KOR", "setting": "[7]; FIG. 3", "value": "high potency"}, {"measurement": "effect on pain threshold", "setting": "[12]", "value": "without effect; also recorded: no effect"}, {"measurement": "antagonism of MOR", "setting": "[10]; FIG. 3", "value": "high potency"}, {"measurement": "binding to M1-5", "setting": "[13]", "value": "does not bind"}]}, {"compound": "COC(=O)C1=C2C3(O)CC4CC5C3CCC(C)N5C24C2CCCC(OC)C2C1OC(=O)c1ccccc1", "note": "(stereo not drawn) [Himandrine]", "values": [{"measurement": "heart rate", "setting": "[14]", "value": "reduced heart rate"}, {"measurement": "hypotension", "setting": "[14]", "value": "marked and sustained hypotension"}]}, {"compound": "C[C@@H]1CC[C@H]2[C@H](C[C@@H]3C[C@@]2(O)C2=CC(=O)[C@H]4CCCC[C@@H]4[C@H]23)N1C", "note": "[Himbadine]", "values": [{"measurement": "antispasmodic activity", "setting": "[15]", "value": "significant antispasmodic activity"}]}, {"compound": "COC(=O)C1CC23CCCCC2C2CC(C4CCCC(C)N4)C4(C)OC23C14", "note": "(stereo not drawn) [drawing 153]", "values": [{"measurement": "Emax", "setting": "[2]; [20]", "value": 13, "unit": "%"}, {"measurement": "IC50", "setting": "[1]", "value": 5000, "unit": "nM"}]}, {"compound": "COC(=O)C1CC23CCCCC2C2CC(C4CCCC(C)N4)C4(C)OC23C14", "note": "(stereo not drawn) [drawing 154]", "values": [{"measurement": "IC50", "setting": "[1]", "value": "> 10000", "unit": "nM"}, {"measurement": "Agonist Emax (% U69,593)", "setting": "[16]", "value": "10* % U69,593"}]}, {"compound": "COC1CC23CCCCC2C2CC(C4CCCC(C)N4)C4(C)OC23C14", "note": "(stereo not drawn) [drawing 167]", "values": [{"measurement": "Agonist Emax (% U69,593)", "setting": "[2]", "value": "10* % U69,593"}, {"measurement": "IC50", "setting": "[1]", "value": 6250, "unit": "nM"}]}, {"compound": "COC1CC23CCCCC2C2CC(C4CCCC(C)N4)C4(C)OC23C14", "note": "(stereo not drawn) [drawing 168]", "values": [{"measurement": "Emax", "setting": "[2]; [19]", "value": 17, "unit": "%"}]}, {"compound": "COC(=O)C1=C2C3(O)CC4CC5C3CCC(C)N5C24C2CCC(O)C(OC)C2C1OC(=O)c1ccccc1", "note": "(stereo not drawn) [himandridine]", "values": [{"measurement": "hypotensive activity", "setting": "[17]; 2.5 mg/kg", "value": "moderate to marked hypotensive activity"}]}, {"compound": "CC1CCCC(C=CC2C3CCCCC3CC3C(=O)OC(C)C32)N1", "note": "(stereo not drawn) [himbeline]", "values": [{"measurement": "depressant and hypotensive activity", "setting": "[17]; no dose listed", "value": "weakly depressant and hypotensive"}]}, {"compound": "himandravine", "values": [{"measurement": "CNS depression", "setting": "[18]", "value": "strong CNS depression"}, {"measurement": "anticonvulsant activity against electroshock seizure", "setting": "[18]", "value": "anticonvulsant activity"}]}]}
